{"source": "paper PMC6540222", "about": "“Small Molecule Inhibitors of KDM5 Histone Demethylases Increase the Radiosensitivity of Breast Cancer Cells Overexpressing JARID1B” (Molecules, 2019)", "key": {"[1]": {"system": "panel of 55 receptors and enzymes", "set-up": "method as in PMID 28262558", "conditions": "cited from earlier work"}, "[2]": {"system": "MCF-7 cells", "assay": "Clonogenic assay after X-ray irradiation", "assay_type": "cell-based, human", "conditions": "MCF-7, 0.03 μM, 3 and 10 Gy, compared to DMSO control", "procedure": "One hour after treatment with inhibitors, cells were exposed to X-ray using a MLG 300/6-D apparatus (Gilardoni, Lecco, Italy) set to […] and 6 mA, in order to produce an equivalent absorbed dose of 1cGy/s. Afterwards, cells were harvested, counted and then diluted in inhibitor containing growth medium. Appropriate cell numbers were seeded in quadruplicate according to the doubling time of the cell line and to radiation dose. 24 h after this seeding, the medium with inhibitor was replaced with fresh DMEM and cells were then incubated for 14 days (enough time to allow at least six cell divisions). After this period of growth, cells were washed twice with PBS and then fixed and stained with a suitable volume of a solution made of 0.3% Methylene Blue and 80% Ethanol for 30 min at room temperature. After washing cells twice with ddH2O, plates were pictured with ChemiDoc XRS+ Imaging System (Bio-Rad) in colorimetric mode. Colonies were detected using Fiji software, with the “Find maxima” function setting a background noise threshold of 3000. Radiation-dose response curveS to X-ray for DMSO and inhibitor samples were calculated using surviving fraction. Plating efficiency and surviving fraction were calculated as follows:Plating efficiency = number of colonies counted/number of cells plated Surviving fraction = Plating efficiency/plating efficiency of shame sample"}, "[3]": {"system": "MCF-7 cells", "assay": "Flow-cytometry analysis of cell cycle distribution", "assay_type": "cell-based, human", "conditions": "MCF-7, same range of concentrations as H3K4me3 test (not shown)", "procedure": "Flow-cytometry analysis of DNA content was carried out using an EPICS xl flow-cytometer (Beckman-Coulter, Brea, CA, USA). DMSO and inhibitor treated MCF-7 cells were trypsinized, pelleted, washed with PBS and finally resuspended in PBS containing 0.1% Triton-X-100 (#A1388.1000, AppliChem, Darmstadt, Germany) and 40 μg/mL propidium iodide (#P-4170, Sigma). After 20 min incubation at 37 °C the samples were analyzed. 10,000 events were acquired for each sample. Acquired data were analyzed using the WinMDI software by Joe Trotter, available at http://facs.scripps.edu."}, "[4]": {"system": "γ-H2AX levels in MCF-7 cells", "assay": "Western blotting of H2AX phosphorylation after irradiation", "assay_type": "cell-based, human", "conditions": "RS5033 10 μM, KDOAM-25 0.03 μM", "procedure": "(§1) Proteins were resolved on a 12% (histones) or 5% (JARID1B) denaturing polyacrylamide gel, using either 4 μg of histone preparation or 40 μg of cell lysate. After electrophoresis, proteins were transferred on a nitrocellulose membrane (Protran™ […] NC, # 10600002, GE Healthcare (Amersham™), Chicago, IL, USA) via wet transfer method using a Bio-Rad tank. Transfer efficiency was verified via ponceau staining (#P7767, Sigma-Aldrich). Filters were blocked with either milk (#70166, Sigma-Aldrich) or bovine serum albumin (#A3069, Sigma-Aldrich) and then hybridized over night at 4 °C in gentle rotation with the following antibodies: rabbit anti-H3K4me3 (1:1000, #39915, Active Motif, RRID:AB_2687512); rabbit-anti-H3K27me3 (1:1000, #9733, Cell Signaling Technology, RRID:AB_2616029); rabbit-anti- H3K9pan-methylated (1:1000, #4473, RRID:AB_10544693); rabbit-anti-H3 ([…], Cat#1791, ABCAM, RRID:AB_302613); rabbit anti-H2AX (1:1000, Cat#7631, Cell Signaling Technology, RRID:AB_10860771), rabbit anti-Phospho-H2AX (1:1000, Cat#9718, Cell Signaling Technology, RRID:AB_2118009), rabbit anti-JARID1B (1:50, Cell Signaling Technology, Cat#3273 RRID: AB_1264191). Goat-anti-Rabbit Horseradish Peroxidase conjugated (1:10,000, #31460, Thermo Fisher Scientific, Waltham, MA, USA RRID:AB_228341) was used as secondary antibody for 1 hour hybridization at room temperature. Blots were scanned and analyzed with a ChemiDoc XRS+ Imaging System (Bio-Rad). The volumes of each band of protein was acquired using Bio-Rad’s ImageLab software by means of volume tools using global quantification. The signal for each protein was normalized to the housekeeping protein and ratios with average control values were determined. For histones as loading control was used either total histone H3 detected by a specific antibody or histone H1 levels by staining the upper part of the gel properly cut before protein transfer on nitrocellulose membrane."}, "[5]": {"system": "H3K4me3 levels in MCF-7 cells", "assay": "Western blotting of H3K4me3 levels in bulk chromatin", "assay_type": "cell-based, human", "conditions": "MCF7 bulk chromatin, 24 h", "procedure": "Histone isolation was performed according to acid extraction of histones protocol of Shechter and colleagues. Histone concentration was determined by running 5 μL of samples and known concentrations of commercially available purified calf thymus histones (from Sigma Aldrich Cat. #000000010223565001) on a SDS-PAGE gel. The gel is stained with Coomassie blue G 250 (BIO-RAD Cat. #161-0786) for 1 hour at room temperature and then destained in distilled water. The gel image is acquired with ChemiDoc XRS+ Imaging System (Bio-Rad, Hercules, CA, USA) and the volumes of bands of the samples are compared to standard concentrations of calf thymus histone.\nas §1"}, "[6]": {"system": "KDM5A-D", "conditions": "in vitro, toward KDM5 enzymes; ref Tumber et al. [49]; cited from earlier work"}, "[7]": {"system": "MCF-7 cells", "assay": "CCK-8 viability assay after X-ray irradiation", "assay_type": "cell-based, human", "conditions": "MCF-7 irradiated with 3 Gy, all concentrations tested, compared to DMSO control, CCK-8 48 h post irradiation", "procedure": "The cytoxicity assay was performed with Cell Counting Kit-8 (#96992, Sigma-Aldrich) according to the manufacturer’s instructions. 100 µL of MCF-7 T47D or MDA-MB231 cell suspension (5000 cells/well) was dispensed in a 96-well plate. After 24 h, inhibitor or DMSO was added in growth medium and then cells were irradiated. 48 h post irradiation, 10 μL of CCK-8 solution was added to each well of the plate and incubated again for 1 h. Incubate the plate for 1–4 h in the incubator. The absorbance at 450 nm was read using a VICTOR2 1420 reader (Perkin Elmer Wallac, Waltham, MA, USA). The absorbance at 450 nm of each sample, which is proportional to the number of viable cells, was first normalized on the same value of absorbance of blank (a well with only growth medium). The absorbance of each dose of radiation (sham, 0.3, 1 and 3 Gy) was normalized to the corresponding DMSO control and then, for each concentration of inhibitors, these values were normalized to the corresponding sham control."}, "[8]": {"system": "MM1S multiple myeloma cells", "set-up": "method as in PMID 28262558", "conditions": "cited from earlier work"}, "[9]": {"biological_target": "KDM5D (Homo sapiens, UniProt Q9BY66)", "sequence (Q9BY66 whole entry)": "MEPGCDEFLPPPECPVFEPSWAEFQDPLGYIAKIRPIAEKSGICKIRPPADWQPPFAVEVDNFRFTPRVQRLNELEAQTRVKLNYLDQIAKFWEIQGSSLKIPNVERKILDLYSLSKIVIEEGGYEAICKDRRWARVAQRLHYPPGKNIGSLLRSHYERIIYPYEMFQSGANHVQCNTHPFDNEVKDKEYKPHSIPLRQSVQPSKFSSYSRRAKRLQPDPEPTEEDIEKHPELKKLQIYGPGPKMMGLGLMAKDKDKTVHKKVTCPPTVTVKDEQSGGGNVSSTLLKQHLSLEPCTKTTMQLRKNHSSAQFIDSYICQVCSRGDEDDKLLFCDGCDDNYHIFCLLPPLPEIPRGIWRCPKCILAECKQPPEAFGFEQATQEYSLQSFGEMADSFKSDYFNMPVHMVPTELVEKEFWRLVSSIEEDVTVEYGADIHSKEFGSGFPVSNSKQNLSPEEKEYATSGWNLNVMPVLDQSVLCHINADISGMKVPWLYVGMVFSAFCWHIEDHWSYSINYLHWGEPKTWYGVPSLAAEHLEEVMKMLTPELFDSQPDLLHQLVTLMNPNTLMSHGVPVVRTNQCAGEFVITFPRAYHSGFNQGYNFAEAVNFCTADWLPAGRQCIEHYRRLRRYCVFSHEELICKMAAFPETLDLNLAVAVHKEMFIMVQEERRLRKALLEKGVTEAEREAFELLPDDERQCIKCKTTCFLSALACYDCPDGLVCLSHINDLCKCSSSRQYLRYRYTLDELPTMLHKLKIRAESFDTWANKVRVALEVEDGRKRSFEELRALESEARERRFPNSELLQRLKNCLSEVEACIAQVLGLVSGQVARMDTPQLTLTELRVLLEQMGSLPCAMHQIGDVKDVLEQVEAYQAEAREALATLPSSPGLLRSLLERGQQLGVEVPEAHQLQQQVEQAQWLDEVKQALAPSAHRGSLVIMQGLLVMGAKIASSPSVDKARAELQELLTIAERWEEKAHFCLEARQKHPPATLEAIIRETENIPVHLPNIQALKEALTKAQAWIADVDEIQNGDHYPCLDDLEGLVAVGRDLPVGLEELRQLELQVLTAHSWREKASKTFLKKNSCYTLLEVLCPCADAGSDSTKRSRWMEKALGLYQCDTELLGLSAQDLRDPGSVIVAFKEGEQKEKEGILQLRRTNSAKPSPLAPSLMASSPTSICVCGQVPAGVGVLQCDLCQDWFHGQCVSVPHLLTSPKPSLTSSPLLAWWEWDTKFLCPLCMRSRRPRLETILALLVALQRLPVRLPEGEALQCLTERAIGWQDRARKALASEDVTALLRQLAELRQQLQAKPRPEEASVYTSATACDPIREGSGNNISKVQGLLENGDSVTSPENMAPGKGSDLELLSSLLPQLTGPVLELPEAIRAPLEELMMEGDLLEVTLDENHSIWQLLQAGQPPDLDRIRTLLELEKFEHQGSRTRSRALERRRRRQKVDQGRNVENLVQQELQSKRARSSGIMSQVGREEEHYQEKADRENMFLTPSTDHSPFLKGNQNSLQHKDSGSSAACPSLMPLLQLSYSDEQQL", "assay": "Surface Plasmon Resonance (SPR), immobilized KDM5D", "assay_type": "binding", "conditions": "KDM5D immobilized on COOH5 sensorchip, buffer HSP-1%D, analyte 6.25-100 μM", "procedure": "Surface Plasmon Resonance (SPR) experiments were carried out using a SensiQ Pioneer system (ICx Nomadics, Stillwater, OK, USA). Immobilization of ligand (KDM5D) was carried out essentially as in Ilari et al.. The sensor chip (COOH5) was activated chemically by a 100 µL injection of a 1:1 mixture of N-ethyl-N′-(3-([…])carbodiimide (200 mM) and N-hydroxysuccinimide (50 mM) at a flow rate of 5 µL/min. KDM5D was immobilized on activated sensor chips via amine coupling. The immobilization was carried out in 20 mM sodium acetate at pH 4.5; the remaining unreacted groups were blocked by injecting 1 M ethanolamine hydrochloride (100 µL). The amount of immobilized KDM5D was detected by mass concentration-dependent changes in the refractive index on the sensor chip surface and corresponded to about 11,000 resonance units (RU); an empty flow cell was used as a reference. Analytes, i.e., inhibitors RS3152, RS3183, RS3195, RS4995 and RS5033 were dissolved in DMSO at a concentration of 10 mM and diluted in HSP buffer (10 mM Hepes pH 7.4, 150 mM NaCl + 0.005% surfactant P20) to yield 100 μM inhibitor concentration in HSP + 1% DMSO (HSP-1%D). The analytes were automatically diluted in HSP-1%D and injected on the sensorchip for 120 s at a constant flow (30 µL/min); analyte concentrations were: (1) 6.25 μM; (2) 12.5 μM; (3) 25 μM; (4) 50 μM; (5) 100 μM. The increase in RU relative to baseline indicates complex formation; the plateau region represents the steady-state phase of the interaction, whereas the decrease in RU after 120 s represents dissociation of analytes from immobilized KDM5 after injection of buffer HSP-1%D. The sensorgrams were analysed using the SensiQ Qdat 4.0 program and using simple Scatchard plots."}}}
{"compound": "CCN(CCN(C)C)C(=O)CNCc1cc(C(N)=O)ccn1", "note": "[KDOAM-25, reference compound]", "values": [{"measurement": "off-target activity", "setting": "[1]", "value": "no off-target activity"}, {"measurement": "proliferative capacity (clonogenic survival)", "setting": "[2]", "value": "slight but significant decrease"}, {"measurement": "effect on cell cycle", "setting": "[3]", "value": "does not show any significant effect"}, {"measurement": "ɤH2AX increase normalized to the amount of H2AX", "setting": "[4]; MCF-7, 6 Gy, 4-36 h", "value": "not significant"}, {"measurement": "amount of ɤH2AX", "setting": "[4]; MCF-7, sham-irradiated and irradiated (6 Gy) cells", "value": "increases"}, {"measurement": "increase of H3K4 tri-methylation", "setting": "[5]; 0.03–1 μM", "value": "around 1.5 fold"}, {"measurement": "increase of H3K4 tri-methylation at higher concentrations", "setting": "[5]; concentrations above 1 μM", "value": "the effect is lost"}, {"measurement": "IC50", "setting": "[6]", "value": "< 0.1", "unit": "µM"}, {"measurement": "reduction of viable cells", "setting": "[7]", "value": "20–35%"}, {"measurement": "proliferation of MM1S multiple myeloma cells", "setting": "[8]", "value": "block proliferation"}]}
{"compound": "COc1ccc(S(=O)(=O)Nc2cccc(C(=O)n3cccc3)c2)cc1", "note": "[RS3152]", "values": [{"measurement": "Kd", "setting": "[9]", "value": "62 ± 5", "unit": "µM"}]}
{"compound": "COc1ccc(S(=O)(=O)Nc2cccc(C(=O)O)c2)cc1", "note": "[RS3183]", "values": [{"measurement": "Kd", "setting": "[9]", "value": "150 ± 15", "unit": "µM"}]}
{"compound": "CCOC(=O)c1ccccc1C(=O)c1ccc(NS(=O)(=O)c2ccc(Br)cc2)cc1", "note": "[RS4995]", "values": [{"measurement": "Kd", "setting": "[9]", "value": "38 ± 3", "unit": "µM"}]}
